Test results: US6528521B2, “Treatment of anti-depression drug-induced sexual dysfunction with apomorphine” (Tap Pharmaceutical Products, Inc., priority 2000, dated 2003)

System: male patients taking selective serotonin reuptake inhibitors
Assay: Crossover home-use trial of sublingual apomorphine in male patients taking SSRIs
Assay type: in vivo, human
Conditions: apomorphine versus placebo
Description: A crossover study of 1500 patients in a home-use trial of apomorphine on male patients was performed.
In the crossover study, a 2-4 week baseline period was used to evaluate subjects. After this time, during an initial four week treatment period, subjects received either a placebo or apomorphine, without knowing whether or not they had received the active medication. The dosage was either 2, 4, 5 or 6 mg. This initial treatment period was followed by a 24-96 hour washout period, in which no medication was taken. Subsequently, a second four week treatment period, subjects who previously had received apomorphine, were given a placebo, and subjects who previously had received the placebo were given apomorphine. Subject were to attempt coitus once each week after taking a single tablet of apomorphine sublingually. After each attempt, the subject and their partner completed a sexual function questionnaire which was later evaluated and used for final statistical analysis. In the analysis, the data for patients receiving 2, 4, 5 or 6 mg dosages was pooled.

CN1CCc2cccc3c2[C@H]1Cc1ccc(O)c(O)c1-3 [apomorphine, (R)-5,6,6a,7-tetrahydro-6-methyl-4H-dibenzo-[de,g]quinoline-10,11-diol]
patients on SSRI drugs able to have intercourse after taking apomorphine, relative to placebo: twice as many
